# Results published in patent US10647990B2, “Rice high temperature resistance gene and use in crop breeding resistance to high temperature thereof” (SHANGHAI INSTITUTES FOR BIOLOGICAL SCIENCES, CHINESE …, priority 2014, dated 2020).
# “Also recorded” adds a separate entry of the source. Peptide text beside a SMILES is read from it. * marks the point of attachment. Cbz = O=C(OCc1ccccc1)*
# Tested on: rice
# Assay: MG132 treatment of rice during high temperature treatment (blocking the 26S proteasome degradation pathway)
# Format: in vivo, Oryza sativa
# Details: under high temperature stress; MG132 0 μM, 50 μM, 100 μM; FIG. 6G, H
compound,measurement,value
CC(C)C[C@@H](C=O)NC(=O)[C@H](CC(C)C)NC(=O)[C@H](CC(C)C)NC(=O)OCc1ccccc1 [MG132] (Cbz-Leu-Leu-Leu-aldehyde),high temperature resistance of rice,high temperature sensitive phenotype; also recorded: can reduce the high temperature resistance of rice
